# Laboratory results taken from PMC9090415, “Discovery of small molecule inhibitors of Plasmodium falciparum apicoplast DNA polymerase” (Journal of Enzyme Inhibition and Medicinal Chemistry, 2022).
# Biological target: P. falciparum apicoplast DNA polymerase (Pf-apPOL) (Plasmodium falciparum, UniProt Q8ILY1)
# Assay: Fluorescence-based high-throughput DNA polymerase assay (molecular beacon), primary screen and dose-response;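 on % inhibition ApPOL 90': test concentration in µM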;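 on % inhibition Apol 40': compound concentration given in µM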;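 on % inhibition apPOL 180': test concentration in µM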
# Format: biochemical
# Conditions: for DNA Pol: 90 min, 10 µM
# How it was run: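 Single-point screening used 10 µM compound with 20 nM polymerase, 20 nM hairpin substrate and 6 µM dNTPs for 90 min at 25 °C. Confirmatory titrations (2.5–80 µM) followed fluorescence at three times, and IC50 was derived from a fit including a cooperativity term n.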
# [1] = "DNA Pol" of the 186 hits list (screen value)
# P. falciparum apicoplast DNA polymerase (Pf-apPOL), sequence (Q8ILY1 entry or part of it): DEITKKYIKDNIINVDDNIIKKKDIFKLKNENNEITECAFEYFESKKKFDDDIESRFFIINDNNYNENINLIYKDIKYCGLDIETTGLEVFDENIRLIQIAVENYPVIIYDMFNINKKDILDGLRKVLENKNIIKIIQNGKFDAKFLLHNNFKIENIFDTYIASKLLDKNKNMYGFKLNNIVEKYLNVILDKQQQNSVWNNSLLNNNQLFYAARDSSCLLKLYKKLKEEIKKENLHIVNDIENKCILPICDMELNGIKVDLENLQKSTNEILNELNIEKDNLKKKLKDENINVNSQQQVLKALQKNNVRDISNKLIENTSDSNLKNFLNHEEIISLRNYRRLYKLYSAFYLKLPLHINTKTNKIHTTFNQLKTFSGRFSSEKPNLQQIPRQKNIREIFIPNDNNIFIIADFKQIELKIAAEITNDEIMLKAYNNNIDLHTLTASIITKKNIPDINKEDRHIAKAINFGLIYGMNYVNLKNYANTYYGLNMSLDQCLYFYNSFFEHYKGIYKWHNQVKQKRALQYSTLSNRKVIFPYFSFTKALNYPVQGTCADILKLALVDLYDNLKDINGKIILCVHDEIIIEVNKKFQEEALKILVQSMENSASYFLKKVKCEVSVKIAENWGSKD
structure (smiles),measurement,setting,value
"O=[N+]([O-])c1ccc(/C=C/c2ccc3ccccc3n2)o1 [Molecule 21, O=N(=O)c1ccc(o1)/C=C/c1ccc2c(n1)cccc2]",DNA Pol,[1],59
same,% inhibition Apo pol 10',"DRC-1, concentration 2.5",21.0135%
same,% inhibition Apo pol 10',"DRC-1, concentration 5",49.9982%
same,% inhibition Apo pol 10',"DRC-1, concentration 10",70.3482%
same,% inhibition Apo pol 10',"DRC-1, concentration 20",76.4404%
same,% inhibition Apo pol 10',"DRC-1, concentration 40",64.8126%
same,% inhibition Apo pol 10',"DRC-1, concentration 80",40.0961%
same,% inhibition Apol 90',"DRC-1, concentration 2.5",13.3257%
same,% inhibition Apol 90',"DRC-1, concentration 5",34.694%
same,% inhibition Apol 90',"DRC-1, concentration 10",59.8691%
same,% inhibition Apol 90',"DRC-1, concentration 20",78.6772%
same,% inhibition Apol 90',"DRC-1, concentration 40",78.7593%
same,% inhibition Apol 90',"DRC-1, concentration 80",64.7186%
same,% inhibition apPOL 180',"DRC-1, concentration 2.5",4.404%
same,% inhibition apPOL 180',"DRC-1, concentration 5",20.9702%
same,% inhibition apPOL 180',"DRC-1, concentration 10",46.0127%
same,% inhibition apPOL 180',"DRC-1, concentration 20",74.6169%
same,% inhibition apPOL 180',"DRC-1, concentration 40",82.0338%
same,% inhibition apPOL 180',"DRC-1, concentration 80",72.6505%
same,% inhibition Apo pol 5',"DRC-2, concentration 2.5",37%
same,% inhibition Apo pol 5',"DRC-2, concentration 5",38%
same,% inhibition Apo pol 5',"DRC-2, concentration 10",41%
same,% inhibition Apo pol 5',"DRC-2, concentration 20",27%
same,% inhibition Apo pol 5',"DRC-2, concentration 40",16%
same,% inhibition Apo pol 5',"DRC-2, concentration 80",-66%
same,% inhibition Apol 40',"DRC-2, concentration 2.5",44%
same,% inhibition Apol 40',"DRC-2, concentration 5",51%
same,% inhibition Apol 40',"DRC-2, concentration 10",63%
same,% inhibition Apol 40',"DRC-2, concentration 20",61%
same,% inhibition Apol 40',"DRC-2, concentration 40",54%
same,% inhibition Apol 40',"DRC-2, concentration 80",10%
same,% inhibition ApPOL 90',"DRC-2, concentration 2.5",41%
same,% inhibition ApPOL 90',"DRC-2, concentration 5",50%
same,% inhibition ApPOL 90',"DRC-2, concentration 10",65%
same,% inhibition ApPOL 90',"DRC-2, concentration 20",67%
same,% inhibition ApPOL 90',"DRC-2, concentration 40",62%
same,% inhibition ApPOL 90',"DRC-2, concentration 80",30%
same,% inhibition apPOL 180',"DRC-2, concentration 2.5",29%
same,% inhibition apPOL 180',"DRC-2, concentration 5",39%
same,% inhibition apPOL 180',"DRC-2, concentration 10",61%
same,% inhibition apPOL 180',"DRC-2, concentration 20",71%
same,% inhibition apPOL 180',"DRC-2, concentration 40",69%
same,% inhibition apPOL 180',"DRC-2, concentration 80",50%
same,DNA Pol,"primary screen value, DNA Pol",59
Cl.NC(CO)C(=O)NNCc1ccc(O)c(O)c1O (stereo not drawn) [KU0260493],DNA Pol,'DNA Pol' of the 186 hits list (primary screen value),84
same,DNA Pol,DNA Pol (primary screen value),84
same,% inhibition Apo pol 10',"DRC-1, concentration 2.5",2.4672%
same,% inhibition Apo pol 10',"DRC-1, concentration 5",2.015%
same,% inhibition Apo pol 10',"DRC-1, concentration 10",15.4444%
same,% inhibition Apo pol 10',"DRC-1, concentration 20",26.1922%
same,% inhibition Apo pol 10',"DRC-1, concentration 40",36.4325%
same,% inhibition Apo pol 10',"DRC-1, concentration 80",40.9646%
same,% inhibition Apol 90',"DRC-1, concentration 2.5",-5.483%
same,% inhibition Apol 90',"DRC-1, concentration 5",-0.705%
same,% inhibition Apol 90',"DRC-1, concentration 10",31.8192%
same,% inhibition Apol 90',"DRC-1, concentration 20",46.4998%
same,% inhibition Apol 90',"DRC-1, concentration 40",57.8018%
same,% inhibition Apol 90',"DRC-1, concentration 80",63.3107%
same,% inhibition apPOL 180',"DRC-1, concentration 2.5",-3.278%
same,% inhibition apPOL 180',"DRC-1, concentration 5",12.5243%
same,% inhibition apPOL 180',"DRC-1, concentration 10",43.7705%
same,% inhibition apPOL 180',"DRC-1, concentration 20",57.9843%
same,% inhibition apPOL 180',"DRC-1, concentration 40",66.1218%
same,% inhibition apPOL 180',"DRC-1, concentration 80",68.6937%
same,% inhibition Apo pol 5',"DRC-2, concentration 2.5",-5.63%
same,% inhibition Apo pol 5',"DRC-2, concentration 5",3.49%
same,% inhibition Apo pol 5',"DRC-2, concentration 10",23%
same,% inhibition Apo pol 5',"DRC-2, concentration 20",36%
same,% inhibition Apo pol 5',"DRC-2, concentration 40",47%
same,% inhibition Apo pol 5',"DRC-2, concentration 80",54%
same,% inhibition Apol 40',"DRC-2, concentration 2.5",-1.63%
same,% inhibition Apol 40',"DRC-2, concentration 5",15%
same,% inhibition Apol 40',"DRC-2, concentration 10",38%
same,% inhibition Apol 40',"DRC-2, concentration 20",53%
same,% inhibition Apol 40',"DRC-2, concentration 40",62%
same,% inhibition Apol 40',"DRC-2, concentration 80",65%
same,% inhibition ApPOL 90',"DRC-2, concentration 2.5",1.48%
same,% inhibition ApPOL 90',"DRC-2, concentration 5",22%
same,% inhibition ApPOL 90',"DRC-2, concentration 10",45%
same,% inhibition ApPOL 90',"DRC-2, concentration 20",60%
same,% inhibition ApPOL 90',"DRC-2, concentration 40",67%
same,% inhibition ApPOL 90',"DRC-2, concentration 80",68%
same,% inhibition apPOL 180',"DRC-2, concentration 2.5",11%
same,% inhibition apPOL 180',"DRC-2, concentration 5",32%
same,% inhibition apPOL 180',"DRC-2, concentration 10",53%
same,% inhibition apPOL 180',"DRC-2, concentration 20",67%
same,% inhibition apPOL 180',"DRC-2, concentration 40",71%
same,% inhibition apPOL 180',"DRC-2, concentration 80",72%
CCOC(=O)C1=C2c3cc(OC)c(OC)cc3CC(C)(C)N2C(=O)C1=O [KU0193659],DNA Pol,[1],50
same,% inhibition Apo pol 10',"DRC-1, concentration 2.5",0.5902%
same,% inhibition Apo pol 10',"DRC-1, concentration 5",6.068%
same,% inhibition Apo pol 10',"DRC-1, concentration 10",24.2091%
same,% inhibition Apo pol 10',"DRC-1, concentration 20",48.7622%
same,% inhibition Apo pol 10',"DRC-1, concentration 40",76.2717%
same,% inhibition Apo pol 10',"DRC-1, concentration 80",83.8971%
same,% inhibition Apol 90',"DRC-1, concentration 2.5",2.413%
same,% inhibition Apol 90',"DRC-1, concentration 5",7.311%
same,% inhibition Apol 90',"DRC-1, concentration 10",23.2588%
same,% inhibition Apol 90',"DRC-1, concentration 20",44.3755%
same,% inhibition Apol 90',"DRC-1, concentration 40",72.221%
same,% inhibition Apol 90',"DRC-1, concentration 80",80.3053%
same,% inhibition apPOL 180',"DRC-1, concentration 2.5",2.939%
same,% inhibition apPOL 180',"DRC-1, concentration 5",8.013%
same,% inhibition apPOL 180',"DRC-1, concentration 10",23.6538%
same,% inhibition apPOL 180',"DRC-1, concentration 20",40.1403%
same,% inhibition apPOL 180',"DRC-1, concentration 40",67.3971%
same,% inhibition apPOL 180',"DRC-1, concentration 80",76.7403%
same,% inhibition Apo pol 5',"DRC-2, concentration 2.5",-4%
same,% inhibition Apo pol 5',"DRC-2, concentration 5",-4.49%
same,% inhibition Apo pol 5',"DRC-2, concentration 10",16%
same,% inhibition Apo pol 5',"DRC-2, concentration 20",26%
same,% inhibition Apo pol 5',"DRC-2, concentration 40",41%
same,% inhibition Apo pol 5',"DRC-2, concentration 80",41%
same,% inhibition Apol 40',"DRC-2, concentration 2.5",-2.41%
same,% inhibition Apol 40',"DRC-2, concentration 5",-3%
same,% inhibition Apol 40',"DRC-2, concentration 10",21%
same,% inhibition Apol 40',"DRC-2, concentration 20",39%
same,% inhibition Apol 40',"DRC-2, concentration 40",57%
same,% inhibition Apol 40',"DRC-2, concentration 80",57%
same,% inhibition ApPOL 90',"DRC-2, concentration 2.5",-1.64%
same,% inhibition ApPOL 90',"DRC-2, concentration 5",-0.605%
same,% inhibition ApPOL 90',"DRC-2, concentration 10",22%
same,% inhibition ApPOL 90',"DRC-2, concentration 20",43%
same,% inhibition ApPOL 90',"DRC-2, concentration 40",64%
same,% inhibition ApPOL 90',"DRC-2, concentration 80",62%
same,% inhibition apPOL 180',"DRC-2, concentration 2.5",-2%
same,% inhibition apPOL 180',"DRC-2, concentration 5",1.35%
same,% inhibition apPOL 180',"DRC-2, concentration 10",23%
same,% inhibition apPOL 180',"DRC-2, concentration 20",46%
same,% inhibition apPOL 180',"DRC-2, concentration 40",68%
same,% inhibition apPOL 180',"DRC-2, concentration 80",66%
same,DNA Pol,"primary screen value, DNA Pol",50
